Calls of active or inactive are those of the source. Rule as the data show it, for most assays here: actives have a measured Kd and inactives only a lower limit.
Assays:
[1] = target: Tyrosine-protein kinase ABL1 (Homo sapiens, UniProt P00519)
[2] = target: RAC-gamma serine/threonine-protein kinase (Homo sapiens, UniProt Q9Y243)
[3] = target: T1, Serine/threonine-protein kinase ICK (Homo sapiens, UniProt Q9UPZ9)
T1 sequence (Q9UPZ9 whole entry): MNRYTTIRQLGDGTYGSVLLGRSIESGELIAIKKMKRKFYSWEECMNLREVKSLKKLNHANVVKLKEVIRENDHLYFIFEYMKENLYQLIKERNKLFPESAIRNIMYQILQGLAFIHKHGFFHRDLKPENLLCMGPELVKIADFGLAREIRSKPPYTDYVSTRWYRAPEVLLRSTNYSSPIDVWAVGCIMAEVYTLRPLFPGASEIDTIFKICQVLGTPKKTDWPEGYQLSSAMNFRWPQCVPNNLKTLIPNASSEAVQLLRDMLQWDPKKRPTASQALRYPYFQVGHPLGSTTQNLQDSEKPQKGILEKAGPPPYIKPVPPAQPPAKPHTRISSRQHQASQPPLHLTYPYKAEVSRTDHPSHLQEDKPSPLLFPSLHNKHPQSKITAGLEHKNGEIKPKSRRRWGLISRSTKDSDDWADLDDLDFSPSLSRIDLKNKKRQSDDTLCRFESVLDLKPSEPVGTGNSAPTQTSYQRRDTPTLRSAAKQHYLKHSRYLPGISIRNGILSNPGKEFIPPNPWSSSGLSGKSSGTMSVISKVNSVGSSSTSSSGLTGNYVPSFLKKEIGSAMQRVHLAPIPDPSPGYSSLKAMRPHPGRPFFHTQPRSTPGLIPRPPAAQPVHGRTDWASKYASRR

[4] = target: Dual specificity mitogen-activated protein kinase kinase 1 (Homo sapiens, UniProt Q02750)
[5] = target: T2, DNA replication licensing factor MCM4 (Homo sapiens, UniProt P33991)
T2 sequence (P33991 whole entry): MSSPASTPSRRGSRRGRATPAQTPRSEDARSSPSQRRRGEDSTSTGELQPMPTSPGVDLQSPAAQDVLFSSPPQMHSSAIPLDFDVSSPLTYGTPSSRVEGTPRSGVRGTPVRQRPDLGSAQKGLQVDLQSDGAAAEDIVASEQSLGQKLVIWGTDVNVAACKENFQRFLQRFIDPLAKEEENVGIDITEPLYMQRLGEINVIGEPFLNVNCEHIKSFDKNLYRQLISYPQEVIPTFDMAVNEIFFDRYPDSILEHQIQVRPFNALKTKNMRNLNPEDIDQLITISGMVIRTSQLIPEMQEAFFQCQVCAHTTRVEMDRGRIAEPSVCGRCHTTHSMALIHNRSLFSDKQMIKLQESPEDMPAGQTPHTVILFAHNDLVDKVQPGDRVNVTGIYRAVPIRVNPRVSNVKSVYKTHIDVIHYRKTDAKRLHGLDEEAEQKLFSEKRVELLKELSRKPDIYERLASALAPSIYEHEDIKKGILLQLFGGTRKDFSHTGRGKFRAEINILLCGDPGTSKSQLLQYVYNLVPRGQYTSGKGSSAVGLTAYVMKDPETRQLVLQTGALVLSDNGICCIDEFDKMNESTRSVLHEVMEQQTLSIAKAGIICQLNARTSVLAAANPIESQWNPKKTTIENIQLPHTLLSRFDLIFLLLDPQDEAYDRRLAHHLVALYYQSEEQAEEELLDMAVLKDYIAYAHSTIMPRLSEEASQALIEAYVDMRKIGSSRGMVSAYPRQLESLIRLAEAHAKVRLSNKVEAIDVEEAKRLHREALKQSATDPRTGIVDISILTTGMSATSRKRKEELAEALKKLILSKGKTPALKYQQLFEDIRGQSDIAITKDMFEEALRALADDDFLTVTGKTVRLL

[6] = target: Rho-associated protein kinase 1 (Homo sapiens, UniProt Q13464)
[7] = target: T3, Serine/threonine-protein kinase TAO2 (Homo sapiens, UniProt Q9UL54)
T3 sequence (Q9UL54 whole entry): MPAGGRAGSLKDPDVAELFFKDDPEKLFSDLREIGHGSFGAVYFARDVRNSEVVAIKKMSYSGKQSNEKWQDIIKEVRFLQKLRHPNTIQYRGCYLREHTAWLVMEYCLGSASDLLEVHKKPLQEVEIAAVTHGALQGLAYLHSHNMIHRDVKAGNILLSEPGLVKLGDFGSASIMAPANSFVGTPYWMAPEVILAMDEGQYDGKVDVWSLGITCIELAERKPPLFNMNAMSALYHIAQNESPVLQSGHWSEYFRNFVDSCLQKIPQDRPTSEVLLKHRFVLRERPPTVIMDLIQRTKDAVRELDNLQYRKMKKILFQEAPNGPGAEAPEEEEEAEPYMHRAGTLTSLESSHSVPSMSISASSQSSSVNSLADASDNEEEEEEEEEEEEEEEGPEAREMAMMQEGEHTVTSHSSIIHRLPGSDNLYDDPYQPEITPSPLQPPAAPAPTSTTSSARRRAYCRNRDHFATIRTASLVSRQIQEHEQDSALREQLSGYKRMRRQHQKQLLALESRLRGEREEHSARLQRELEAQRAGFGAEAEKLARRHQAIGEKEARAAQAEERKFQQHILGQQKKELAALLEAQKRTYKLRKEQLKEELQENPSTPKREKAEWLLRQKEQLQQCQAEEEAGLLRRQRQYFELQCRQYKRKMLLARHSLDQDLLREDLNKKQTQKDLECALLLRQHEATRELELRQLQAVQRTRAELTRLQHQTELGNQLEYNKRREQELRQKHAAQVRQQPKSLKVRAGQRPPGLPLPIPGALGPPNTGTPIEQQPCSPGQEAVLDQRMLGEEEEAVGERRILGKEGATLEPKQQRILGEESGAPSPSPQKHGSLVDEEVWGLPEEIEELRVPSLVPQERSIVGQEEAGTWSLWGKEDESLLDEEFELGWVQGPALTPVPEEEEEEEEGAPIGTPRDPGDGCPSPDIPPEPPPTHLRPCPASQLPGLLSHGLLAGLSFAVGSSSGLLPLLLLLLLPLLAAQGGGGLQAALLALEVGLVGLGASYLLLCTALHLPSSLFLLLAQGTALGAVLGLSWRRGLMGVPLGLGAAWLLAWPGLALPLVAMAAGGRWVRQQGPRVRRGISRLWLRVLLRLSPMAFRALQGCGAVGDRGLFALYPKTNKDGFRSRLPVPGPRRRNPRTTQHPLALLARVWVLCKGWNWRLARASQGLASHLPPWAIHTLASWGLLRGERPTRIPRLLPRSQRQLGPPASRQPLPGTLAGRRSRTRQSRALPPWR

TGF-beta receptor type-2 = TGF-beta receptor type-2 (Homo sapiens, UniProt P37173)
Also: in the data inactive means no Kd found up to 30 µM.

Sequence of Dual specificity mitogen-activated protein kinase kinase 1 (Q02750 whole entry): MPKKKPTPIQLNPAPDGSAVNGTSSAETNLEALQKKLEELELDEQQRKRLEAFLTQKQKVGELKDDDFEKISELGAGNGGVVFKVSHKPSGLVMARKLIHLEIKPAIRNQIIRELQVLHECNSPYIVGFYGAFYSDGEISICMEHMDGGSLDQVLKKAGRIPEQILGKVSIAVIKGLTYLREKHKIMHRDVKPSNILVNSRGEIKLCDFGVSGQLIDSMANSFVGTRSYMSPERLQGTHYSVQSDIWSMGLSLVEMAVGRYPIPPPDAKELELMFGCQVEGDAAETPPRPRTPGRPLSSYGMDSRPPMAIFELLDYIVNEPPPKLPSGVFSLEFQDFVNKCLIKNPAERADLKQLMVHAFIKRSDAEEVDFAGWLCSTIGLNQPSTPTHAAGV
Sequence of TGF-beta receptor type-2 (P37173 whole entry): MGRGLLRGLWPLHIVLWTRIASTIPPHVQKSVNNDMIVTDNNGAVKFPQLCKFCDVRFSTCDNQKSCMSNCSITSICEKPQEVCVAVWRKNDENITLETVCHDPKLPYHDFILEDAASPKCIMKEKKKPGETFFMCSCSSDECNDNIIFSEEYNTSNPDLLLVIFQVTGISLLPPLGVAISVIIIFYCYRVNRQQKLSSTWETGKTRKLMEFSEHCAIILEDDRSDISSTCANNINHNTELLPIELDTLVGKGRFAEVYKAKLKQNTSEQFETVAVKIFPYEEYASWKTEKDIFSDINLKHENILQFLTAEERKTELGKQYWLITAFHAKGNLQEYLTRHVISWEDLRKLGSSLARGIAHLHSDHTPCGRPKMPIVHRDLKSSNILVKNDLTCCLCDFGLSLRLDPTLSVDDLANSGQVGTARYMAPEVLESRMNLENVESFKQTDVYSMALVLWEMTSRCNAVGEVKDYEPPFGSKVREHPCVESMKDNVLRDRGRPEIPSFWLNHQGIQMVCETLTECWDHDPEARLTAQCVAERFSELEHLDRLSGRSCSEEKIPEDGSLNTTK
Sequence of RAC-gamma serine/threonine-protein kinase (Q9Y243 whole entry): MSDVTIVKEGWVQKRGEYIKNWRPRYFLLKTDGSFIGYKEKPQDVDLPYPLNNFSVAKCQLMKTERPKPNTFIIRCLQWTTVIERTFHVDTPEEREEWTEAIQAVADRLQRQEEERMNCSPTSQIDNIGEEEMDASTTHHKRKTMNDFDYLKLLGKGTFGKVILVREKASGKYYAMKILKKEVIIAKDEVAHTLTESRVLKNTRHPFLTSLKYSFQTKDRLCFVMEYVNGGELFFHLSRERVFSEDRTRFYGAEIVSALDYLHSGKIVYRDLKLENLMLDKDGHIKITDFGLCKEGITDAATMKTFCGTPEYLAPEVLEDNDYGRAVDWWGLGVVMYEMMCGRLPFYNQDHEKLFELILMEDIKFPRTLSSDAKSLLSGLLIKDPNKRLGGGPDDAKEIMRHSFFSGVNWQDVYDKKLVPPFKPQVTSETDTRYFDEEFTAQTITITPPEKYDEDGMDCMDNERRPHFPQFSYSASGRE
Sequence of Tyrosine-protein kinase ABL1 (P00519 whole entry): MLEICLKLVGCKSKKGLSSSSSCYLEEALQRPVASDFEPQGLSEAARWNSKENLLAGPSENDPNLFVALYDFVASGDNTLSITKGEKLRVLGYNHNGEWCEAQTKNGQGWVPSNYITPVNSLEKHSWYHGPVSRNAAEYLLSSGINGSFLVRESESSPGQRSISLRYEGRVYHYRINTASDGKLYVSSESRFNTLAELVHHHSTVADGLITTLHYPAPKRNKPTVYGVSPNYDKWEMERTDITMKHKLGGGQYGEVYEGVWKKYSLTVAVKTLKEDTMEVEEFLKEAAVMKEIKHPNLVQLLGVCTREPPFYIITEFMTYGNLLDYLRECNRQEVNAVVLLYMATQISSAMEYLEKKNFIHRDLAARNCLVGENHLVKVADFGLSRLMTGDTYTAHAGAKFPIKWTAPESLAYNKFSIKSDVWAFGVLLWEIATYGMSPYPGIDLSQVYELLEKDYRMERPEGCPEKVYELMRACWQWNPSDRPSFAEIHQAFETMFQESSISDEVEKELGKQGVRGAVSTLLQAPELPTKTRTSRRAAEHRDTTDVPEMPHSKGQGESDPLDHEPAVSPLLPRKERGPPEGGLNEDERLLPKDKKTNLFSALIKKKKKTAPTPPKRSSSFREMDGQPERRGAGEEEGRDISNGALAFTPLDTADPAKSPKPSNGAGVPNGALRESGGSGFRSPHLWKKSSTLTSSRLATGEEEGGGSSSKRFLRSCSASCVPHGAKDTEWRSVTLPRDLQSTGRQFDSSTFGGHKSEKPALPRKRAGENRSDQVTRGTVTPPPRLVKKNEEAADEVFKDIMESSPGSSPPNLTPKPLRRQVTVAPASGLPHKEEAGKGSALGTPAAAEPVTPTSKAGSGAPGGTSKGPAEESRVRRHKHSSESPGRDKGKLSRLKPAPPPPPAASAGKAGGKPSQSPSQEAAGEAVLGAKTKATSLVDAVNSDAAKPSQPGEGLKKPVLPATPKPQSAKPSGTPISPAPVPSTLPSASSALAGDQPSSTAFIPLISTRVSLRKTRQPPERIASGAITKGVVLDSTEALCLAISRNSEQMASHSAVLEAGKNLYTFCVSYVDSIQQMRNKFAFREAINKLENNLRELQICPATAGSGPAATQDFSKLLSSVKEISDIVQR
Sequence of Rho-associated protein kinase 1 (Q13464 whole entry): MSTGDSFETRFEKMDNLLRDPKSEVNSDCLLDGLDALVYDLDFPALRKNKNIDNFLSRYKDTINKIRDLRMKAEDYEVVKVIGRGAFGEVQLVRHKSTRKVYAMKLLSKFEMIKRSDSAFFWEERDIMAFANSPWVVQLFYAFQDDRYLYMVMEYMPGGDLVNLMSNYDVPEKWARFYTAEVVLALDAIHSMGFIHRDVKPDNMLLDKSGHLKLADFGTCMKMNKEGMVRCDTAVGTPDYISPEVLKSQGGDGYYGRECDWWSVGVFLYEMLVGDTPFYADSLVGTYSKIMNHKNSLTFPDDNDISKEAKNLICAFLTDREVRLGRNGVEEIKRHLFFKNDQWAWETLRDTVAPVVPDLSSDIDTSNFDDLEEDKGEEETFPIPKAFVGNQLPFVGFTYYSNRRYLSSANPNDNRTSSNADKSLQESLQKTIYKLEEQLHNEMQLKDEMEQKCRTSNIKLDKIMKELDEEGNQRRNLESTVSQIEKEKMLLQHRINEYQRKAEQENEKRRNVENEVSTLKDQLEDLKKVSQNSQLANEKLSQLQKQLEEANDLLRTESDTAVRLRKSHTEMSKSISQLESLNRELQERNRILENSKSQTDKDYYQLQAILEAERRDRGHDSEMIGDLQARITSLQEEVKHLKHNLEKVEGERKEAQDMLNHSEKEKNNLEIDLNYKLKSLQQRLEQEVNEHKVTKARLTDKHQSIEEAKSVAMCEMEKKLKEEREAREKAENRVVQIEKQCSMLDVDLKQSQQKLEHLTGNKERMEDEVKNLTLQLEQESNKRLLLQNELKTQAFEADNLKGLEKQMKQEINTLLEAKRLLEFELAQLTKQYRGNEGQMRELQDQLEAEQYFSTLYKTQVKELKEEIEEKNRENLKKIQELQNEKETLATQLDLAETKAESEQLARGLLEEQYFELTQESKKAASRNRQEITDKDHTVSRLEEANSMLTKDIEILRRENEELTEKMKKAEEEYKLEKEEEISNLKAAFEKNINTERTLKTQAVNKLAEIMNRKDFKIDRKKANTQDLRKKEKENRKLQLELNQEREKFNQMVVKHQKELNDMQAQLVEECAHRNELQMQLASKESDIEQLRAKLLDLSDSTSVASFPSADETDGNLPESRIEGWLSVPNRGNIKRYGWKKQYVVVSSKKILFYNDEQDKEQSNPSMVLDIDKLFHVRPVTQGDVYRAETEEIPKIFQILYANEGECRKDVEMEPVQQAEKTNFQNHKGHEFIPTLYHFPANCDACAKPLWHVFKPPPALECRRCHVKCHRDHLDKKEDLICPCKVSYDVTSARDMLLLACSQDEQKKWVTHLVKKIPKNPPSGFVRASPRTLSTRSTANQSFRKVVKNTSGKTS

| Structure (SMILES) | Kd [1] | Kd [2] | Kd [3] | Kd [4] | Kd [5] | Kd [6] | Kd [7] | Kd (TGF-beta receptor type-2) |
| --- | --- | --- | --- | --- | --- | --- | --- | --- |
| COCCNCc1ccc(-c2cc3nccc(Oc4ccc(NC(=S)NC(=O)Cc5ccc(F)cc5)cc4F)c3s2)nc1 [GLESATINIB] | 0.241 µM (active) | > 30 µM (inactive) | > 30 µM (inactive) | > 30 µM (inactive) | > 30 µM (inactive) | > 30 µM (inactive) | > 30 µM (inactive) | > 30 µM (inactive) |
| Cc1cc2c(F)c(Oc3ncnn4cc(OC[C@@H](C)OC(=O)[C@H](C)N)c(C)c34)ccc2[nH]1 [BRIVANIB ALANINATE] | > 30 µM (inactive) | > 30 µM (inactive) | > 30 µM (inactive) | > 30 µM (inactive) | > 30 µM (inactive) | > 30 µM (inactive) | > 30 µM (inactive) | > 30 µM (inactive) |
| Cc1ccc(-n2nc(C(C)(C)C)cc2NC(=O)NCc2cc(F)ccc2Oc2ccc3c(cnn3CCO)c2)cc1 [PEXMETINIB] | 0.211 µM (active) | > 30 µM (inactive) | > 30 µM (inactive) | > 30 µM (inactive) | > 30 µM (inactive) | > 30 µM (inactive) | > 30 µM (inactive) | > 30 µM (inactive) |

Next, values leading:

| Kd [1] | Kd [2] | Kd [3] | Kd [4] | Kd [5] | Kd [6] | Kd [7] | Kd (TGF-beta receptor type-2) | Structure (SMILES) |
| --- | --- | --- | --- | --- | --- | --- | --- | --- |
| > 30 µM (inactive) | > 30 µM (inactive) | > 30 µM (inactive) | > 30 µM (inactive) | > 30 µM (inactive) | > 30 µM (inactive) | > 30 µM (inactive) | > 30 µM (inactive) | COc1ccc(-c2ccc3c(N4CCOC[C@@H]4C)nc(N4CCOC[C@@H]4C)nc3n2)cc1CO [AZD-8055] |
| > 30 µM (inactive) | > 30 µM (inactive) | > 30 µM (inactive) | > 30 µM (inactive) | > 30 µM (inactive) | > 30 µM (inactive) | > 30 µM (inactive) | > 30 µM (inactive) | CN(C)C(=O)c1cc2cnc(Nc3ccc(N4CCNCC4)cn3)nc2n1C1CCCC1 [RIBOCICLIB] |

Reference: ChEMBL document CHEMBL3991601, “The target landscape of clinical kinase drugs” (Science, 2017)
